Measured values published in US8501946B2 (Glaxo Group Limited, priority 2009, dated 2013).

What was measured:
[1] = molecular target: T1, human recombinant P2X7 receptors (Homo sapiens, UniProt Q99572); experiment: Ethidium Accumulation Assay 1 (HEK293 cells, ATP-induced ethidium uptake); assay type: cell-based; details: HEK293 cells expressing human P2X7; 1 mM ATP; sometimes mean of more than one measurement; read-out: Assay 1 (antagonist pIC50 for blocking ATP responses) (converted)
T1 construct: expressed in transfected cells
T1 sequence (Q99572 1-595): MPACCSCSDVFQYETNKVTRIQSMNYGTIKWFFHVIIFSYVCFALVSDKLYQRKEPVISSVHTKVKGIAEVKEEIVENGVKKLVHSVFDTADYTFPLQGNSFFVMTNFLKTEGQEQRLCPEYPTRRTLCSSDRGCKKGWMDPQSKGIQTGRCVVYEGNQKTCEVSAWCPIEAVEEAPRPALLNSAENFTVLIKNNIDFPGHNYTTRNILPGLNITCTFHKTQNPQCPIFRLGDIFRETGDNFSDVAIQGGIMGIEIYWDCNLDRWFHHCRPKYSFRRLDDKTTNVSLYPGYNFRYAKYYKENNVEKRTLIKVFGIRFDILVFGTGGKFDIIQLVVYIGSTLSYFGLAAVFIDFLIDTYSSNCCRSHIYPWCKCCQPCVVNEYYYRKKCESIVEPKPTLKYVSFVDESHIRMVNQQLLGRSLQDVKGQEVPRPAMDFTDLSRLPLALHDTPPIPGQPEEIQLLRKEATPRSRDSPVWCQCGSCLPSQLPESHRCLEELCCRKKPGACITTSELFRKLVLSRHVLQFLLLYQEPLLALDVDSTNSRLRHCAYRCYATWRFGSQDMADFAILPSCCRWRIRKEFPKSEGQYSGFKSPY

[2] = molecular target: T1, human recombinant P2X7 receptors; experiment: Ethidium Accumulation Assay 2 (HEK293 cells, ATP-induced ethidium uptake); assay type: cell-based; details: HEK293 cells expressing human P2X7; sometimes mean of more than one measurement; read-out: Assay 2 (antagonist pIC50 for blocking ATP responses) (converted)
Procedure: Eithidium Accumulation Assay 2
Human Embryonic Kidney (HEK) 293 cells, stably expressing human recombinant P2X7 receptors, were grown in poly-D-lysine pretreated 96 well plates for 24 hours at 37° C.
The cells were washed with assay buffer (100 μL), before addition of 25 μL of assay buffer and then 25 ul of assay buffer containing the putative P2X7 receptor antagonist compound. The cells were then incubated at room temperature (19-21° C.) for 30 min before addition of ATP solution (50 μM). […] Antagonist pIC50 values for blocking ATP responses were determined using iterative curve fitting techniques.

O=C(c1cccc(C(F)(F)F)c1Cl)N1CCn2c(nnc2-c2cccnn2)C1 [Example 44, 7-{[2-chloro-3-(trifluoromethyl)phenyl]carbonyl}-3-(3-pyridazinyl)-5,6,7,8-tetrahydro[1,2,4]triazolo [4,3-a]pyrazine]
IC50 [1]: < 100 nM
IC50 [2]: < 100 nM

O=C(c1ccc(Cl)c(F)c1Cl)N1CCn2c(nnc2-c2cnccn2)C1 [Example 111, 7-[(2,4-Dichloro-3-fluorophenyl)carbonyl]-3-(2-pyrazinyl)-5,6,7,8-tetrahydro[1,2,4]triazolo[4,3-a]pyrazine]
IC50 [1]: < 10 nM
IC50 [2]: < 10 nM

CCc1nnc2n1CCN(C(=O)c1cccc(C(F)(F)F)c1Cl)C2 [Example 4, 7-{[2-chloro-3-(trifluoromethyl)phenyl]carbonyl}-3-ethyl-5,6,7,8-tetrahydro[1,2,4]triazolo [4,3-a]pyrazine]
IC50 [1]: < 100 nM
IC50 [2]: < 100 nM

Cc1nnc2n1CCN(C(=O)c1cccc(C(F)(F)F)c1Cl)C2 [Example 15, 7-{[2-Chloro-3-(trifluoromethyl)phenyl]carbonyl}-3-methyl-5,6,7,8-tetrahydro[1,2,4]triazolo[4,3-a]pyrazine]
IC50 [1]: < 100 nM
IC50 [2]: < 501 nM

O=C(c1cccc(C(F)(F)F)c1Cl)N1CCn2cnnc2C1 [Example 3, 7-{[2-chloro-3-(trifluoromethyl)phenyl]carbonyl}-5,6,7,8-tetrahydro[1,2,4]triazolo [4,3-a]pyrazine]
IC50 [1]: < 501 nM
IC50 [2]: < 501 nM

O=C(c1ccc(F)c(Cl)c1Cl)N1CCn2c(nnc2-c2ccc(F)cn2)C1 [Example 114, 7-[(2,3-Dichloro-4-fluorophenyl)carbonyl]-3-(5-fluoro-2-pyridinyl)-5,6,7,8-tetrahydro[1,2,4]triazolo[4,3-a]pyrazine]
IC50 [1]: < 10 nM
IC50 [2]: < 10 nM

O=C(c1ccc(F)cc1Cl)N1CCn2c(nnc2-c2cccc(Cl)c2)C1 [Example 126, 7-[(2-chloro-4-fluorophenyl)carbonyl]-3-(3-chlorophenyl)-5,6,7,8-tetrahydro[1,2,4]triazolo[4,3-a]pyrazine]
IC50 [1]: < 100 nM
IC50 [2]: < 100 nM

O=C(c1cccc(C(F)(F)F)c1Cl)N1CCn2c(nnc2-c2ccc(F)cn2)C1 [Example 45, 7-{[2-chloro-3-(trifluoromethyl)phenyl]carbonyl}-3-(5-fluoro-2-pyridinyl)-5,6,7,8-tetrahydro[1,2,4]triazolo[4,3-a]pyrazine]
IC50 [1]: < 10 nM
IC50 [2]: < 10 nM

Cc1cnc(-c2nnc3n2CCN(C(=O)c2ccc(Cl)c(F)c2Cl)C3)s1 [Example 188, 7-[(2,4-Dichloro-3-fluorophenyl)carbonyl]-3-(5-methyl-1,3-thiazol-2-yl)-5,6,7,8-tetrahydro[1,2,4]triazolo[4,3-a]pyrazine]
IC50 [2]: < 100 nM

O=C(c1ccc(Cl)c(F)c1Cl)N1CCn2c(nnc2-c2ncccc2F)C1 [Example 170, 7-[(2,4-dichloro-3-fluorophenyl)carbonyl]-3-(3-fluoro-2-pyridinyl)-5,6,7,8-tetrahydro[1,2,4]triazolo[4,3-a]pyrazine]
IC50 [2]: < 10 nM

O=C(c1ccc(Cl)c(F)c1Cl)N1CCn2c(nnc2-c2ccns2)C1 [Example 178, 7-[(2,4-dichloro-3-fluorophenyl)carbonyl]-3-(5-isothiazolyl)-5,6,7,8-tetrahydro[1,2,4]triazolo[4,3-a]pyrazine]
IC50 [2]: < 100 nM

Cc1c(C(=O)N2CCn3c(nnc3-c3cnccn3)C2)ccc(F)c1Cl [Example 146, 7-[(3-chloro-4-fluoro-2-methylphenyl)carbonyl]-3-(2-pyrazinyl)-5,6,7,8-tetrahydro[1,2,4]triazolo[4,3-a]pyrazine]
IC50 [2]: < 10 nM

O=C(c1ccc(F)c(Cl)c1Cl)N1CCn2c(nnc2-c2cccnn2)C1 [Example 168, 7-[(2,3-Dichloro-4-fluorophenyl)carbonyl]-3-(3-pyridazinyl)-5,6,7,8-tetrahydro[1,2,4]triazolo[4,3-a]pyrazine]
IC50 [2]: < 100 nM

O=C(c1ccc(Cl)c(F)c1Cl)N1CCn2c(nnc2-c2nccs2)C1 [Example 187, 7-[(2,4-Dichloro-3-fluorophenyl)carbonyl]-3-(1,3-thiazol-2-yl)-5,6,7,8-tetrahydro[1,2,4]triazolo[4,3-a]pyrazine]
IC50 [2]: < 10 nM

N#Cc1c(Cl)cccc1C(=O)N1CCn2c(nnc2-c2ccccn2)C1 [Example 204, 2-Chloro-6-{[3-(2-pyridinyl)-5,6-dihydro[1,2,4]triazolo[4,3-a]pyrazin-7(8H)-yl]carbonyl}benzonitrile]
IC50 [2]: < 10 nM
